Measurements reported in article PMC2951065 (Journal of Medicinal Chemistry, 2010).
Counter-ions that a name gives are not always drawn. One block for each compound: values may come before it.

Assays:
[1] = Precipitation in cell culture medium; format: physicochemical
COS 7 cells [2] = format: cell-based
COS 7 cells [3] = experiment: Apoptosis assay: etoposide-induced cell death, Trypan Blue exclusion; details: for etoposide-induced increase in apoptotic cells: COS 7, 0.1% FBS
COS 7 cells [4] = experiment: Agonist; format: cell-based
PP1 = PP1 (Oryctolagus cuniculus, UniProt P62139); experiment: Selectivity toward other phosphatases: PP1, pNPP; format: biochemical
Chain of PP1 (P62139 whole entry): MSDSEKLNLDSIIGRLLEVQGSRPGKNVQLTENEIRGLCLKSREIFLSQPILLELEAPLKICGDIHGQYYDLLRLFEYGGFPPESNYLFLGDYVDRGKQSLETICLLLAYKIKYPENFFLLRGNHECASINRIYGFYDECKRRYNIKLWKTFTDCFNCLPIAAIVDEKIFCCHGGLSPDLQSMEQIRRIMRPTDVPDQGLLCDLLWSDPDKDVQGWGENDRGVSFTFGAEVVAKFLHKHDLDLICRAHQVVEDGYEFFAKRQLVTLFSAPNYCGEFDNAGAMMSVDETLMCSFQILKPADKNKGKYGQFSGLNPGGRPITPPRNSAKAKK

PP2Cα = biological target: T1, PP2Cα (Homo sapiens, UniProt P35813); experiment: Selectivity toward other phosphatases: PP2Cα, pNPP; format: biochemical
T1 sequence (P35813 1-382): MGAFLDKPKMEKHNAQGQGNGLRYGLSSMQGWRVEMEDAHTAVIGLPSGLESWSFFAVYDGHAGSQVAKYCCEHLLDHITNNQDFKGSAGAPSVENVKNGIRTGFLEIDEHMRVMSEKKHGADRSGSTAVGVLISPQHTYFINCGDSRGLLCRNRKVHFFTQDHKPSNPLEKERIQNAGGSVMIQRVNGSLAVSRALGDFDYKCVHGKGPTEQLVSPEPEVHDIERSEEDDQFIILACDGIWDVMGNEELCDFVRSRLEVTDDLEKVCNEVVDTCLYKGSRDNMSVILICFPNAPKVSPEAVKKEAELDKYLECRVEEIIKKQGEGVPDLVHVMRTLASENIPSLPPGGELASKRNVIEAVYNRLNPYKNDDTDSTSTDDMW

PP2B/calcineurin = PP2B/calcineurin (Homo sapiens, UniProt Q08209); experiment: Selectivity toward other phosphatases: PP2B, pNPP; format: biochemical
Chain of PP2B/calcineurin (P63098 whole entry, other chains not shown, the tested form may be a part): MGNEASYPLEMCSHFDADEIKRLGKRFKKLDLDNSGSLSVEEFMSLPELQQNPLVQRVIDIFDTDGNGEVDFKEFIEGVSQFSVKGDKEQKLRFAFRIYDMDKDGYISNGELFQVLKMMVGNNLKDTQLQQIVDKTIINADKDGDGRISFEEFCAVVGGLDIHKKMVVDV

[5] = biological target: T2, phosphatase domain of PHLPP2 (Homo sapiens, UniProt Q6ZVD8); experiment: In vitro inhibition of PHLPP2 phosphatase domain, pNPP as substrate; format: biochemical; details: for mechanism (type) of inhibition: with respect to pNPP
T2 sequence (Q6ZVD8 785-1033 limits assumed): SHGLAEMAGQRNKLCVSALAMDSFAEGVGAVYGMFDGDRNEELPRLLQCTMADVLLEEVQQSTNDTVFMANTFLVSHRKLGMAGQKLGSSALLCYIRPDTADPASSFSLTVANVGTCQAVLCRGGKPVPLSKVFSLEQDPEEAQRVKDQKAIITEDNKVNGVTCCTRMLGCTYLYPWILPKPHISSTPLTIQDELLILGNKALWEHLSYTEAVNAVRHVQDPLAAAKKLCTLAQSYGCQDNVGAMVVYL

[6] = 50 μM pretreatment 30 min, etoposide 24 h
[7] = 10-fold higher concentration than 10 μM
[8] = highest concentration tested (100 μM)

SMILES: Nc1c(S(=O)(=O)O)cc(Nc2cccc(S(N)(=O)=O)c2)c2c1C(=O)c1ccccc1C2=O [Compound 1, 1-amino-9,10-dioxo-4-(3-sulfamoylanilino)anthracene-2-sulfonic acid, sodium salt]
- concentration at which compound tends to precipitate in the cell culture medium [1]: > 300 µM
- selectivity for Ser473 compared to Thr308 (COS 7 cells [2]): almost 1 order of magnitude
- increase in the phosphorylation of Ser473 (basal Akt) (COS 7 cells [2]; serum-starved COS 7, 35 min): approximately 6 fold
- basal level of apoptotic cells (COS 7 cells [3]; 50 μM compound, no etoposide): approximately 12%
- reduction of the magnitude of the etoposide-induced increase in apoptotic cells (COS 7 cells [3]; [6]): approximately 30%
- etoposide-induced increase in apoptotic cells (COS 7 cells [3]; [6]): 2.6 ± 0.3 fold
- EGF-evoked increase in p308 phosphorylation (COS 7 cells [4]; 50 μM pretreatment, then EGF): approximately 6 fold
- basal phosphorylation at Ser473 compared with DMSO (COS 7 cells [4]; 50 μM, 35 min pretreatment, serum-starved COS 7): significantly higher
- IC50 (PP1): ~100 µM
- effect on PP1 activity (PP1; 10 μM compound): no significant effect
- inhibition of PP1 (PP1; [7]): approximately 50%
- phosphorylation of Akt on Ser 473 (HT29 cells; HT29, 5% FBS, 24 h, 100 or 250 μM): increased Akt phosphorylation and activity in cells
- phosphorylation of downstream substrates GSK3 α/β (Ser21/9) and FoxO1/3α (Thr 24/32); Akt activity (HT29 cells; HT29, 24 h, 100 or 250 μM): corresponding increases
- IC50 (PP2Cα): ~100 µM
- effect on PP2Cα activity (PP2Cα; 10 μM compound): no significant effect
- inhibition of PP2Cα (PP2Cα; [7]): approximately 50%
- effect on PP2B activity (PP2B/calcineurin; 10 μM compound): no significant effect
- effect on PP2B activity (PP2B/calcineurin; [8]): neither molecule affected the activity
- IC50 [5]: 5.45 ± 0.05 µM
- selectivity for PHLPP over the other phosphatases tested ([5]; vs PP1, PP2B, PP2Cα): over an order of magnitude
- mechanism (type) of inhibition [5]: noncompetitive

SMILES: Cc1cc(/N=N/c2ccc(/N=N/c3ccc(O)c(C(=O)O)c3)cc2)c(N)cc1N [Compound 13, 1,3-[[4-(2,4-diamino-5-methylphenyl)diazenylphenyl]hydrazinylidene]-6-oxocyclohexa-1,4-diene-1-carboxylic acid]
- modulation of Ser473 phosphorylation (COS 7 cells [2]; cells grown in serum, data not shown): considerably less effective
- increase in the phosphorylation of Ser473 (basal Akt) (COS 7 cells [2]; serum-starved COS 7, 35 min): approximately 4 fold
- sensitivity of phosphorylation of Akt on Thr308 compared with Ser473 (COS 7 cells [2]; serum-starved COS 7, 35 min): not significantly different
- effect on etoposide-induced increase in apoptotic cells (COS 7 cells [3]; [6]): essentially abolished
- IC50 (PP1): ~100 µM
- IC50 (PP2Cα): ~100 µM
- effect on PP2B activity (PP2B/calcineurin; [8]): neither molecule affected the activity
- mechanism (type) of inhibition [5]: noncompetitive

SMILES: COc1ccc2nc3cc(Cl)ccc3c(Nc3ccc(C(=O)O)cc3)c2c1 [Compound 24]
- phosphorylation of downstream substrates GSK3 α/β (Ser21/9) and FoxO1/3α (Thr 24/32); Akt activity (HT29 cells; HT29, 24 h, 100 or 250 μM): corresponding increases

SMILES: COc1cc([C@@H]2c3cc4c(cc3[C@@H](O[C@@H]3O[C@@H]5CO[C@@H](C)O[C@H]5[C@H](O)[C@H]3O)[C@H]3COC(=O)[C@H]23)OCO4)cc(OC)c1O [Etoposide, etoposide, reference compound]
- etoposide-induced increase in apoptotic cells (COS 7 cells [3]; [6]): 3.4 ± 0.4 fold

Now from value to compound, other results behind:

- mechanism (type) of inhibition [5]: Noncompetitive
SMILES: COc1ccc(NCc2c(O)ccc3ccccc23)cc1 [Compound 2]

- mechanism (type) of inhibition [5]: uncompetitive
SMILES: COc1cc(NCCC2CCCCN2)c2ncccc2c1 (stereo not drawn) [Compound 4]
- toxicity to cells (HT29 cells; HT29, 24 h): induced cells to detach from culture dishes, reflecting toxicity
- phosphorylation of downstream substrates GSK3 α/β (Ser21/9) and FoxO1/3α (Thr 24/32); Akt activity (HT29 cells; HT29, 24 h, 100 or 250 μM): corresponding increases

- mechanism (type) of inhibition [5]: Competitive
SMILES: NS(=O)(=O)c1ccc(/N=N/c2ncccc2O)cc1 [Compound 7]
